This is an account of results in ChEMBL document CHEMBL2074336, “Reversal of P-glycoprotein-associated multidrug resistance by ivermectin” (Biochem Pharmacol, 1997).

Assay type in all cases: functional, cell membranes, Plasma membrane
Common to all, as to conditions: cem-vlb

Data set [1] concerns the target T1, ATP-dependent translocase ABCB1 (Homo sapiens, UniProt P08183). The experiment in a line: TP_TRANSPORTER: inhibition of Ivermectin binding (IVM: 0.2 uM, Vinblastine: 300-fold molar excess) in plasma membranes from CEM/VLB1.0 cells. Also on record: scale not given: the % may be the effect or the level left.
For data set [2], the target named is T1, ATP-dependent translocase ABCB1. As to the kind of experiment: TP_TRANSPORTER: inhibition of IAAP photoaffinity labelling (IAAP: 0.02 uM, PSC-833: 100-fold molar excess) in plasma membranes from CEM/VLB1.0 cells.
For data set [3] the target is unchanged. The experiment in a line: TP_TRANSPORTER: inhibition of IAAP photoaffinity labelling (IAAP: 0.02 uM, IVM: 100-fold molar excess) in plasma membranes from CEM/VLB1.0 cells. More on the design: scale not given: the % may be the effect or the level left.
For data set [4] the target is unchanged. The experiment in a line: TP_TRANSPORTER: inhibition of Vinblastine binding (Vinblastine: 0.2 uM, IVM: 300-fold molar excess) in plasma membranes from CEM/VLB1.0 cells. Also on record: scale not given: the % may be the effect or the level left.

T1 sequence (P08183 whole entry): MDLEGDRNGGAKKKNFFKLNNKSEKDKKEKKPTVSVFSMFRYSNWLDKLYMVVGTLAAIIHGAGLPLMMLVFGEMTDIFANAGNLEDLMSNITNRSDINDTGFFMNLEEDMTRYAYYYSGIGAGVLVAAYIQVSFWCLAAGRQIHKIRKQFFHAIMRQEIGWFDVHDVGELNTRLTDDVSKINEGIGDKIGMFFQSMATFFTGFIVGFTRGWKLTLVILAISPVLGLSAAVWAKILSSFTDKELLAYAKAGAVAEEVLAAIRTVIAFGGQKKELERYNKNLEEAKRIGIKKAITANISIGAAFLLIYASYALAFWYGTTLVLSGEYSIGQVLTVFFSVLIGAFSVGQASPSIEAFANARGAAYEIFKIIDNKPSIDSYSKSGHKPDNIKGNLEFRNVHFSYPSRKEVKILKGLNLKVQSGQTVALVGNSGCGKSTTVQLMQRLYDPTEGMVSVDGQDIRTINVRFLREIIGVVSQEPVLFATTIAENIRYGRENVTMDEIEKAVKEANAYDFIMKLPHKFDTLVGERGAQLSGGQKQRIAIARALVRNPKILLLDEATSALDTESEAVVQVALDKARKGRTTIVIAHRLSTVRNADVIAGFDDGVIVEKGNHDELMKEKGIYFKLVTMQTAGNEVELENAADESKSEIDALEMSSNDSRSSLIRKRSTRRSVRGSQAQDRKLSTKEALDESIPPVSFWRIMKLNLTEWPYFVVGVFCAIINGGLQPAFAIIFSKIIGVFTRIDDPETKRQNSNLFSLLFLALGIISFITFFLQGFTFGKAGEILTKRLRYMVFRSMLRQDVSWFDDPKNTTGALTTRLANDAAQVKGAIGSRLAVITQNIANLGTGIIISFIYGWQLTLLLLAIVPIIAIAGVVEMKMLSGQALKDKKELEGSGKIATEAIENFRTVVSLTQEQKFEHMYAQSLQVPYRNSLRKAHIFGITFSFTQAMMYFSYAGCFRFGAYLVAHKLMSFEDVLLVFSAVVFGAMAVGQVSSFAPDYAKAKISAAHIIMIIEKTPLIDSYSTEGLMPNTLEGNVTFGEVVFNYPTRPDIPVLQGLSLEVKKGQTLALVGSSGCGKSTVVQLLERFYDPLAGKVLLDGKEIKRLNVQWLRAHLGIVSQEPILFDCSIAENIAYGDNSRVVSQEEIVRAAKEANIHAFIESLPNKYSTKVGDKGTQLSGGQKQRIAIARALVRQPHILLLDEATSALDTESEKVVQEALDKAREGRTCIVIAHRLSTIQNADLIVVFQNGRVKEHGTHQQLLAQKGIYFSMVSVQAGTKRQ

In turn, `CC[C@]1(O)C[C@@H]2CN(CCc3c([nH]c4ccccc34)[C@@](C(=O)OC)(c3cc4c(cc3OC)N(C)[C@H]3[C@@](O)(C(=O)OC)[C@H](OC(C)=O)[C@]5(CC)C=CCN6CC[C@]43[C@@H]65)C2)C1` [VINBLASTINE] came in with an Activity in data set [1] of 44%.

Turning to `C/C=C/C[C@@H](C)C(=O)[C@H]1C(=O)N[C@@H](C(C)C)C(=O)N(C)CC(=O)N(C)[C@@H](CC(C)C)C(=O)N[C@@H](C(C)C)C(=O)N(C)[C@@H](CC(C)C)C(=O)N[C@@H](C)C(=O)N[C@H](C)C(=O)N(C)[C@@H](CC(C)C)C(=O)N(C)[C@@H](CC(C)C)C(=O)N(C)[C@@H](C(C)C)C(=O)N1C` [VALSPODAR], the Activity result in data set [2] is “inhibitor [+]”.

For the molecule IVERMECTIN, the Activity in data set [3] and in data set [4] was 0% each time.
